From PubChem BioAssay (NCI)
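How tested: cells in 96-well plates exposed to compound for 48 hours at five concentrations. GI50 marks 50% less growth. TGI: concentration producing complete growth inhibition.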

What was measured:
Test in all cases: growth of human tumour cells (NCI), 48 h
[1] = tested on: SNB-75 CNS
[2] = tested on: SF-295 CNS
[3] = tested on: CCRF-CEM leukemia
[4] = tested on: SF-539 CNS
[5] = tested on: SK-MEL-5 melanoma
[6] = tested on: NCI-H522 lung
[7] = tested on: IGROV1 ovarian
[8] = tested on: NCI-H460 lung
[9] = tested on: MDA-MB-231 breast
[10] = tested on: NCI/ADR-RES ovarian
[11] = tested on: DU-145 prostate
[12] = tested on: SK-OV-3 ovarian
[13] = tested on: RXF 393 renal
[14] = tested on: COLO 205 colon
[15] = tested on: HCT-15 colon
[16] = tested on: MCF7 breast
[17] = tested on: EKVX NSCLC
[18] = tested on: HT29 colon
[19] = tested on: 786-0 renal
[20] = tested on: OVCAR-8 ovarian
[21] = tested on: CAKI-1 renal
[22] = tested on: A549 NSCLC
[23] = tested on: M14 melanoma
[24] = tested on: K-562 leukemia
[25] = tested on: HOP-62 NSCLC
[26] = tested on: HCC-2998 colon
[27] = tested on: PC-3 prostate
[28] = tested on: T-47D breast
[29] = tested on: SK-MEL-2 melanoma
[30] = tested on: BT-549 breast
[31] = tested on: U251 CNS
[32] = tested on: A498 renal
[33] = tested on: NCI-H226 lung
[34] = tested on: HOP-92 NSCLC
[35] = tested on: UACC-257 melanoma
[36] = tested on: KM12 colon
[37] = tested on: UACC-62 melanoma
[38] = tested on: MALME-3M melanoma
[39] = tested on: HCT-116 colon
[40] = tested on: SK-MEL-28 melanoma
[41] = tested on: SN12C renal
[42] = tested on: MOLT-4 leukemia
[43] = tested on: RPMI-8226 leukemia
[44] = tested on: UO-31 renal
[45] = tested on: OVCAR-5 ovarian
[46] = tested on: MDA-MB-435
[47] = tested on: ACHN renal
[48] = tested on: OVCAR-3 ovarian
[49] = tested on: OVCAR-4 ovarian
[50] = tested on: NCI-H23 lung
[51] = tested on: SF-268 CNS
[52] = tested on: TK-10 renal
[53] = tested on: LOX IMVI melanoma
[54] = tested on: SNB-19 CNS
[55] = tested on: SW-620 colon
[56] = tested on: HL-60(TB) leukemia
[57] = tested on: SR leukemia
[58] = tested on: HS 578T breast

## CC1(C)CC[C@]2(C(=O)n3ccnc3)CC[C@]3(C)[C@H](C(=O)C=C4[C@@]5(C)C=C(C#N)C(=O)C(C)(C)[C@@H]5CC[C@]43C)[C@@H]2C1
[1]
  GI50: 23.6 nM
  TGI: 187 nM
[2]
  GI50: 15.2 nM
  TGI: 97.5 nM
[3]
  GI50: < 10 nM
  TGI: 43.8 nM
[4]
  GI50: < 11.4 nM
  TGI: < 33.6 nM
[5]
  GI50: 92.3 nM
  TGI: 262 nM
[6]
  GI50: 16.8 nM
  TGI: 58.5 nM
[7]
  GI50: < 10.6 nM
  TGI: < 29.2 nM
[8]
  GI50: < 17.9 nM
  TGI: > 100000 nM
[9]
  GI50: 18.4 nM
  TGI: 68.2 nM
[10]
  GI50: < 10 nM
  TGI: 89.5 nM
[11]
  GI50: < 10 nM
  TGI: 17.4 nM
[12]
  GI50: 34.7 nM
  TGI: 317 nM
[13]
  GI50: 11.4 nM
  TGI: 53.6 nM
[14]
  GI50: 13.9 nM
  TGI: > 100000 nM
[15]
  GI50: < 10 nM
  TGI: 20.4 nM
[16]
  GI50: < 10 nM
  TGI: > 100000 nM
[17]
  GI50: 141 nM
  TGI: 545 nM
[18]
  GI50: < 11.7 nM
[19]
  GI50: < 10 nM
  TGI: 19.9 nM
[20]
  GI50: < 10 nM
[21]
  GI50: < 10 nM
  TGI: 39.3 nM
[22]
  GI50: < 21.4 nM
[23]
  GI50: 28.7 nM
  TGI: 196 nM
[24]
  GI50: < 10 nM
  TGI: 130 nM
[25]
  GI50: 10.5 nM
  TGI: 40.2 nM
[26]
  GI50: < 10 nM
  TGI: < 10 nM
[27]
  GI50: < 14.2 nM
  TGI: 65.5 nM
[28]
  GI50: 44.6 nM
  TGI: 395 nM
[29]
  GI50: < 33.6 nM
[30]
  GI50: < 32.8 nM
  TGI: 126 nM
[31]
  GI50: < 10 nM
  TGI: 28.1 nM
[32]
  GI50: 112 nM
  TGI: 280 nM
[33]
  GI50: < 17.8 nM
  TGI: < 49.9 nM
[34]
  GI50: 22.1 nM
  TGI: 102 nM
[35]
  GI50: 71.9 nM
[36]
  GI50: < 10.4 nM
  TGI: < 19.9 nM
[37]
  GI50: < 14 nM
  TGI: < 33.6 nM
[38]
  GI50: < 11.1 nM
  TGI: < 18.8 nM
[39]
  GI50: < 11.2 nM
  TGI: 27.3 nM
[40]
  GI50: < 15.5 nM
  TGI: 84.8 nM
[41]
  GI50: < 17.7 nM
  TGI: 40.4 nM
[42]
  GI50: < 10 nM
  TGI: < 10 nM
[43]
  GI50: < 10 nM
  TGI: < 10 nM
[44]
  GI50: < 10.8 nM
  TGI: < 17.4 nM
[45]
  GI50: 10.3 nM
  TGI: 137 nM
[46]
  GI50: < 14.8 nM
  TGI: 37.3 nM
[47]
  GI50: < 11.4 nM
  TGI: < 17.2 nM
[48]
  GI50: < 10 nM
  TGI: 99.4 nM
[49]
  GI50: 35.9 nM
  TGI: 173 nM
[50]
  GI50: < 15.1 nM
  TGI: 78.6 nM
[51]
  GI50: 16.4 nM
  TGI: > 100000 nM
[52]
  GI50: < 13.2 nM
  TGI: < 22.6 nM

## C#CC[C@@H]1C[C@]2(C)[C@H]3CC[C@@H]4[C@H]5[C@H](C(=C)C)CC[C@]5(C(=O)O)CC[C@@]4(C)[C@]3(C)CC[C@H]2C(C)(C)[C@H]1O
[1]
  GI50: 1950 nM
  TGI: 4120 nM
[2]
  GI50: 1450 nM
  TGI: 3170 nM
[3]
  GI50: 2360 nM
  TGI: 9020 nM
[4]
  GI50: 2670 nM
  TGI: 7880 nM
[5]
  GI50: 2270 nM
  TGI: 5580 nM
[6]
  GI50: 2950 nM
  TGI: 12300 nM
[7]
  GI50: 4210 nM
  TGI: 15600 nM
[8]
  GI50: 1620 nM
  TGI: 3180 nM
[9]
  GI50: 2320 nM
  TGI: 6110 nM
[10]
  GI50: 2030 nM
  TGI: 5240 nM
[11]
  GI50: 3230 nM
  TGI: 10800 nM
[12]
  GI50: 2390 nM
  TGI: 5250 nM
[13]
  GI50: 1700 nM
  TGI: 3520 nM
[53]
  GI50: 2630 nM
  TGI: 8670 nM
[54]
  GI50: 3040 nM
  TGI: 13400 nM
[14]
  GI50: 2090 nM
  TGI: 4680 nM
[15]
  GI50: 1890 nM
  TGI: 6610 nM
[17]
  GI50: 2630 nM
  TGI: 10600 nM
[18]
  GI50: 1930 nM
  TGI: 3690 nM
[55]
  GI50: 1980 nM
  TGI: 4280 nM
[19]
  GI50: 1710 nM
  TGI: 3400 nM
[20]
  GI50: 2170 nM
  TGI: 4810 nM
[22]
  GI50: 1310 nM
  TGI: 2800 nM
[23]
  GI50: 2050 nM
  TGI: 4680 nM
[24]
  GI50: 2320 nM
  TGI: 20900 nM
[25]
  GI50: 2080 nM
  TGI: 5280 nM
[26]
  GI50: 4440 nM
  TGI: 38500 nM
[27]
  GI50: 1500 nM
  TGI: 3520 nM
[28]
  GI50: 1790 nM
  TGI: 4660 nM
[29]
  GI50: 2400 nM
  TGI: 6780 nM
[30]
  GI50: 2520 nM
  TGI: 8730 nM
[31]
  GI50: 1570 nM
  TGI: 3030 nM
[32]
  GI50: 1880 nM
  TGI: 4190 nM
[33]
  GI50: 2050 nM
  TGI: 6560 nM
[34]
  GI50: 1700 nM
  TGI: 4180 nM
[35]
  GI50: 3730 nM
  TGI: 13400 nM
[36]
  GI50: 1640 nM
  TGI: 4830 nM
[56]
  GI50: 2570 nM
  TGI: > 100000 nM
[37]
  GI50: 2640 nM
  TGI: 9840 nM
[38]
  GI50: 2530 nM
  TGI: 5830 nM
[40]
  GI50: 2750 nM
  TGI: 7600 nM
[41]
  GI50: 2980 nM
  TGI: 11600 nM
[42]
  GI50: 3160 nM
  TGI: > 100000 nM
[43]
  GI50: 1680 nM
  TGI: 14700 nM
[44]
  GI50: 1830 nM
  TGI: 5330 nM
[57]
  GI50: 3120 nM
  TGI: 11900 nM
[45]
  GI50: 3070 nM
  TGI: 11600 nM
[46]
  GI50: 3030 nM
  TGI: 10800 nM
[47]
  GI50: 1500 nM
  TGI: 3180 nM
[58]
  GI50: 2340 nM
  TGI: 7010 nM
[48]
  GI50: 1700 nM
  TGI: 3150 nM
[49]
  GI50: 1930 nM
  TGI: 3830 nM
[50]
  GI50: 2380 nM
  TGI: 6950 nM
[51]
  GI50: 2810 nM
  TGI: 10100 nM
[52]
  GI50: 1850 nM
  TGI: 4440 nM
